Data as given in US20080095754A1, “OPHTHALMIC COMPOSITIONS COMPRISING DIGLYCINE” (priority 2006, published 2008).
Residues, ends and D or L forms follow the SMILES beside them.

What was measured:
lysozyme [1] = test: VP-DSC thermal unfolding of lysozyme in formulated solutions; assay type: physicochemical; conditions: for increase in the melting temperature of lysozyme: in both VP-DSC and CD; for reversibility of thermal denaturation / refolding of lysozyme, VP-DSC: second scan
Procedure: (§1) To evaluate the effect of diglycine on the conformational stability of lysozyme, Formulations 1 and 2 as well as a formulation without diglycine were analyzed by differential scanning calorimetry (DSC) and circular dichroism (CD). Before DSC and CD analysis, a lysozyme solution was prepared in borate buffer, pH 7.3 (sodium borate, 0.09%; boric acid, 0.85%; sodium chloride, 0.22%) at a concentration of 5 mg/mL, and was dialyzed against the formulated solutions containing 0, 1 (Formulation 1), and 3% (Formulation 2) diglycine, at 2-8° C. for 16 hours. Thermal scans were preformed twice to investigate the reversibility of thermal unfolding for both DSC and CD. This study examines the values of melting temperature (Tm), unfolding enthalpies (ΔH), and the ability of the lysozyme to refold upon unfolding for each of the three formulations because these parameters, in general, predict the thermostability of a protein and approximates the susceptibility of a protein to aggegrate and other irreversible changes at lower temperatures.
For the DSC analysis, thermograms were obtained on a VP-DSC (Microcal, USA) at a scan rate of 90° C. per hour from 10° C. to 95° C. All samples were diluted with the formulated solutions to a concentration of 0.5 mg/mL, and degassed for 4 minutes using a vacuum. The thermograms were corrected for the baseline signal and normalized for protein concentration. Using a non-2-state unfolding model, the Tm and the ΔH were determined by Origin software. […]

lysozyme [2] = test: Far-UV circular dichroism (CD) thermal melting of lysozyme in formulated solutions; assay type: physicochemical; conditions: for reversibility of thermal denaturation / refolding of lysozyme, CD: second scan; for change of lysozyme Tm, CD: glycerin 1%, trehalose 1% and 5%, alone
Procedure: as §1
CD spectra were conducted on a Jasco-810 Spectropolarimeter. The far-UV CD studies were preformed in a 1-mm pathlength cell at a protein concentration of 0.2 mg/mL, using a scan rate of 50 nm/min from 190 nm to 260 nm and a scan rate of 1° C./min from 20° C. to 95° C. The melting temperatures and the unfolding enthalpies were determined from the denaturation curved obtained from the dependency of the mean residue ellipticity at 230 nm on temperature.
A second experiment screened the additives glycerin, trehalose, and hyaluronic acid (HA) in combination with 1% diglycine, for their ability to stabilize the conformation of lysozyme. VP-DSC and CD were again used to measure the melting temperatures (Tm), unfolding enthalpies (ΔH), and the ability to refold the lysozyme upon unfolding.
Before DSC and CD analysis, the lysozyme solution was prepared in a borate buffer, pH 7.3 (sodium borate, 0.09%; boric acid, 0.85%; sodium chloride, 0.22%) at a concentration of 5 mg/mL. It was then dialyzed against the formulated solutions containing either 1% glycerin, 1% trehalose, 5% trehalose, 1% diglycine and 3% glycerin, or 1% diglycine and 3% trehalose, at 2-8° C. for 16 hours. For the hyaluronic acid formulation, the lysozyme solution was dialyzed against the borate buffer, and subsequently diluted to the desired concentrations with 0.2% of hyaluronic acid for analyses. Thermal scans were performed twice to investigate the reversibility of thermal unfolding for both methods.
The VP-DSC results are supported by the circular dichroism (CD) spectral measurements which were conducted as a function of temperature on a Jasco-810 Spectropolarimeter. The far-UV CD studies were performed in a 1-mm pathlength cell at a protein concentration of 0.2 mg/mL, and a scan rate of 1° C./min form 20° C. to 95° C. The melting temperatures and the Van't Hoff enthalpies were determined from denaturation curves obtained from the mean residue ellipticity at 230 nm as a function of temperature. Tables 2 and 3 summarize the results of the CD measurements and FIGS. 13-18 show the CD-thermal scans.

SMILES	increase in the melting temperature of lysozyme (lysozyme [1]; 1% w/w diglycine vs borate buffer)	increase in the melting temperature of lysozyme (lysozyme [1]; 3% w/w diglycine vs borate buffer)	reversibility of thermal denaturation / refolding of lysozyme, VP-DSC (lysozyme [1])	reversibility of thermal denaturation / refolding of lysozyme, CD (lysozyme [2])	change of lysozyme Tm, VP-DSC (lysozyme [1])	change of lysozyme Tm, CD (lysozyme [2])
NCC(=O)NCC(=O)O [diglycine] (H-Gly-Gly-OH)	approximately 2 °C	~4 °C	at least partially reversible	at least partially reversible		
OCC(O)CO [glycerin]			not able to refold	partial refolding phenomenon	did not increase	did not increase
OC[C@H]1O[C@H](O[C@H]2O[C@H](CO)[C@@H](O)[C@H](O)[C@H]2O)[C@H](O)[C@@H](O)[C@@H]1O [trehalose]			not able to refold	not able to refold	did not increase	did not increase
